One data set deals with H460 tumors. Put plainly: Histopathology and ubiquitin immunohistochemistry of H460 tumors. The class given is in vivo, SCID-RAG2 mice. As to conditions: 15 mg/kg; day 21 or 24. As to the method:
To evaluate whether XIAP AS oligonucleotide administration results in direct tumor cell kill, we examined the histology of tumors after treatment both for morphology and ubiquitin immunostaining (FIGS. 19A and 19B). At day 21 or 24 post-tumor inoculation, tumors treated with 15 mg/kg of G4 AS oligonucleotides, SC oligonucleotides, or saline control were excised, sectioned, and stained with hematoxylin and eosin.
The degradation of proteins is largely ubiquitin-proteasome-dependent; increased ubiquitin expression has been observed during apoptosis. Thus, we examined the ubiquitin expression in the tumors sections used for hematoxylin and eosin staining.
Mouse tumors were collected on day 21 or 24 post-tumor inoculation and treatment. One portion of the tumor tissue was fixed in formalin. Paraffin-embedded tissues were sectioned and subjected to gross histopathology using hematoxylin and eosin staining and immunohistochemistry for ubiquitin expression. The other portion of the tumor was homogenized in lysis buffer for western blot analysis (see above).

For the next data set, the system named is XIAP mRNA. Put plainly: XIAP mRNA knock-down in H460 cells (real-time RT-PCR / TaqMan). It is filed as cell-based, human. As to conditions: 2 × 2 MBO; NCI-H460 cells, 9 hours post-transfection; relative level (mock control 1.01).
Data set [1] has as its system MDA-MB-435/LCC6 human breast carcinoma xenografts. Put plainly: Systemic (i.p.) PS-oligonucleotides in LCC6 breast carcinoma xenografts. As to conditions: 12.5 mg/kg i.p.; day 35, two weeks after the last treatment. The class given is in vivo, female SCID-RAG2 mice. As to the method:
(§1) Initial systemic PS-oligonucleotide studies were designed without any chemotherapeutic agents. SCID-RAG2 mice were inoculated with H460 human lung carcinoma cells (s.c. shoulder injection of 10^6 cells) and treatments with G4 and F3 AS PS-oligonucleotides, as well as a scrambled control, were initiated three days after tumor inoculation. Nucleobase oligomer injections were administered i.p. at 12.5 mg/kg three times a week for three weeks. At the end of the treatment period, mean tumor sizes in the groups treated with either G4 or F3 AS oligonucleotides were ˜50% smaller than in the group treated with a scrambled control oligonucleotides (FIG. 15). The same treatment protocol was tested on female SCID-RAG2 mice inoculated orthotopically with MDA-MB-435/LCC6 human breast carcinoma cells. Two weeks after the last treatment (day 35) tumor volumes of mice treated with F3, C5 or G4 AS oligonucleotides were 70%, 60%, and 45%, respectively, smaller than vehicle controls (FIG. 16).
(§2) Efficacy experiments were conducted in male RAG2 immunodeficient mice bearing NCI-H460 tumours or female RAG2 mice bearing LCC6 tumors. Treatments were commenced on day 3 after tumor inoculation. Saline (controls), G4 AS oligonucleotides (5 or 15 mg/kg), or G4 SC oligonucleotides (5 or 15 mg/kg) were administered i.p. daily for five doses a week over a three week regimen. Vinorelbine (VNB, 5 or 10 mg/kg) was administered i.v. via the tail vein, either alone or in combination with oligonucleotides, at day 3, 7, 11 and 17 after tumor inoculation. When oligonucleotides were administered in combination with VNB, the drug treatment was performed four hours after ODN treatment.

The test system of data set [2] is subcutaneous H460 human non-small-cell lung tumor xenografts. Put plainly: Systemic (i.p.) oligonucleotides with or without vinorelbine in H460 xenografts. It is filed as in vivo, SCID-RAG2 mice. As to conditions: for mean tumor size: day 24, control 0.75. As to the method:
as §1
We conducted additional examination of the antitumor effects of G4 AS oligonucleotides in SCID-RAG2 mice bearing xenografts of H460 human non-small-cell lung tumors implanted subcutaneously. Saline-treated control tumors grew reproducibly to a size of 0.75 cm^3 within approximately 24 days (FIG. 17). Oligonucleotide treatments were initiated three days after tumor cell inoculation. G4 AS oligonucleotides (5 to 15 mg/kg) were administered using a treatment schedule of i.p. injections given once a day on days 3-7, 10-14, and 17-21. The treatment with 5 or 15 mg/kg G4 AS oligonucleotides greatly delayed tumor growth: on day 24 mean tumor sizes were 0.75, 0.45 and 0.29 cm^3 in control, 5 and 15 mg/kg treated groups, respectively (FIG. 18A). There was a dose-dependent inhibition of tumor growth. […] A dose of 15 mg/kg was selected for the future combination treatment regimens with anticancer drugs.
The human non-small cell lung cancer cell line (large cell type) NCI-H460 (H460) was obtained from ATCC and maintained in RPMI 1640 supplemented with 10% FCS at 37° C. in a humidified atmosphere containing 5% CO2. Cells were used in exponential growth phase, up to a maximum of 25 in vitro passages. Male SCID-RAG2 mice (7-9 weeks old, 23-26 g) were obtained from British Columbia Cancer Agency Joint Animal Facility breeding colony and kept in aseptic environments. A tumor model of NCI-H460 cells in SCID-RAG2 mice was established by subcutaneous implantation of 1×10^6 NCI-H460 cells on the back of mice.
as §2
Mice were observed daily. Body weight measurements and signs of stress (e.g., lethargy, ruffled coat, ataxia) were used to detect possible toxicities. Animals with ulcerated tumor, or tumor volumes of 1 cm^3 or greater were killed. Digital caliper measurements of tumors were converted into mean tumor size (cm^3) using the formula: ½[length (cm)]×[width (cm)]^2. An average tumor size per mouse was used to calculate the group mean tumor size±SE (n=6 mice) from at least two independent experiments per group.

The subject of a further data set is H460 cells. Put plainly: Apoptotic flow cytometric assay (PI staining, hypo-diploid DNA content). As to conditions: 1.2 μM, untreated control 16.6%. It is filed as cell-based, human. As to the method: Cells were treated with liposome-oligonucleotide complexes for 4.5 h, and incubated for another 48 h in the medium without transfection reagent at 37° C. Following incubation, cells were harvested, washed twice with sample buffer (0.5% glucose in PBS without Ca^++ and Mg^++), and fixed in cold 70% ethanol at 4° C. for at least 18 hrs. Samples were centrifuged at 3000 rpm for 10 min, then resuspended in sample buffer containing 50 μg/ml propidium iodide (PI) and 400 U/ml RNase A. Samples were incubated for 30 min at room temperature and 30 min on ice, followed by flow cytometry analysis. EXPO Software (Applied Cytometry Systems, Sacramento, Calif.) was used to generate histograms, which were used to determine the cell cycle phase distribution after debris exclusion. The Sub G1/G0 cell fraction was considered as representative for apoptotic cells.

These results are taken from patent US8012944B2, “Method for treating cancer using IAP antisense oligomer and chemotherapeutic agent” (Pharmascience Inc., priority 2003, dated 2011).

For “GCTGAGTCTCCATATTGCC [G4 AS] (chemistry not given here)”, the “tumor histology (hematoxylin and eosin)” value with H460 tumors is reported as “increased number of dead cells”. Moreover, the “XIAP RNA” value in the data set on XIAP mRNA is recorded as 0.48. Further, the “tumor volumes smaller than vehicle controls” value in data set [1] came out at 45%. For the same sequence, in data set [2] (15 mg/kg i.p.), the “tumor size as % of control mean tumor size” value is 39% and the mean tumor size is 0.29 cm^3. Moreover, the “mean tumor size smaller than scrambled control group” value in data set [2] (PS-oligonucleotides 12.5 mg/kg i.p. three times a week for three weeks, end of treatment) was ~50%. In addition, in data set [2] (5 mg/kg i.p.), the mean tumor size was found to be 0.45 cm^3. In data set [2] (systemic, oligonucleotide 15 mg/kg i.p., VNB 5 or 10 mg/kg i.v.), the “antitumor efficacy on H460 xenografts (in words)” value is listed as “significant sequence-specific growth inhibitory effects”. Further, the “hypo-diploid DNA content of cells” value in the data set with H460 cells worked out at 40.8%.
